Measurements as given in patent US20130266636A1, “METHODS FOR BLOCKING CELL PROLIFERATION AND TREATING DISEASES AND CONDITIONS RESPONSIVE TO CELL GROWTH INHIBITION” (THE REGENTS OF THE UNIVERSITY OF CALIFORNIA, priority 2010, published 2013).

What was measured:
[1] = biological target: T1, phospho-S338 CRAF (Homo sapiens, UniProt P04049); test: Phospho-S338 CRAF staining in orthotopic brain tumor xenografts; format: in vivo, mice; conditions: systemic KG5 50 mg/Kg, 3 days
T1 construct: phospho-S338 CRAF in orthotopic brain tumor xenografts untreated or treated systemically with KG5; from tissue; host or cells: orthotopic U-87 glioblastoma xenografts in the brain of nude mice
Description: FIG. 41. Phospho-5338 CRAF is highly expressed in tumors and can be blocked by an allosteric RAF inhibitor: FIG. 41(a) Immunohistochemical staining of phospho-S338 CRAF in normal human brain and human glioblastoma tissues. Scale bar, 100 μm. FIG. 41(b) Immunohistochemical staining of phospho-S338 CRAF in orthotopic brain tumor xenografts untreated or treated systemically with KG5 (50 mg/Kg) for 3 days. Scale bar, 50 p.m. FIG. 42. Phospho-5338 CRAF promotes mitosis: FIG. 42(a) Quantification of WT and CRAF−/− cells in the G1, S and G2/M phases of the cell cycle. Data are representative of three independent experiments. […] Cells in G2/M were quantified by flow cytometry. […] FIG. 42(d) Cells at pro-metaphase were quantified using confocal microscopy. […] FIG. 42(e) HCT-116 cells were transfected with control or CRAF siRNAs and cells in G2/M were quantified by flow cytometry. […] Lysates of these cells were analyzed for CRAF expression by immunoblotting (inset). […] Quantification of cells in G2/M was performed by flow cytometry. […]
Tumors were generated by injection of RFP-labeled U-87 human glioblastoma cells (10^5 tumorcells in 2 μl of sterile PBS) into the brain of 6-8 week old female nude mice. […] Brains were harvested at day 15 and fluorescence images recorded using the IVIS-200™ imaging system (Xenogen Corp., Hopkinton, Mass.). […]

[2] = system: Plk1; test: Plk1 localization, confocal microscopy and CenpF immunoprecipitates; format: cell-based, human
Source text: FIG. 46. CRAF regulates Plk1 activity and localization. FIG. 46(a) Plk1 kinase activity assay performed in WT and CRAF−/− MEFs. Error bars represent s.d. (n=3); * two tailed p value=0.029 using Mann Whitney U test. FIG. 46(b) Immunoblot analysis of XPA-1 cells asynchronous or arrested in mitosis by treatment with KG5, nocodazole or paclitaxel (referred to as Ncdzl and Ptxl respectively). pPlk1 refers to phospho-T210 Plk1 and pHH3 refers to phospho-Histone H3. Data are representative of three independent experiments. FIG. 46(c) Plk1 kinase activity assay performed in HCT-116 cells treated with nocodazole or nocodazole and KG5. Error bars represent s.d. (n=2); * two tailed p value=0.002 using Mann Whitney U test. FIG. 46(d) Immunoblot analysis of CenpF immunoprecipitates from HCT-116 cells untreated or treated with KG5. Data are representative of three independent experiments. FIG. 46(e) Confocal microscopy images of XPA-1 cell at prophase (upper panel), pro-metaphase control untreated (middle panel) or treated with KG5 (lower panel). Cells were stained for phospho-T210 Plk1 (in green), a tubulin (in red) and DNA (TOPRO-3™ in blue). Thick white arrows indicate localization of pPlk1 at the mitotic spindle pole and narrow white arrows indicate localization of pPlk1 at the kinetochores. Scale bar, 10 p.m. […]

[3] = biological target: Flt-3 (Homo sapiens, UniProt P36888); conditions: cited from earlier work
Sequence of Flt-3 (P36888 27-993, species assumed): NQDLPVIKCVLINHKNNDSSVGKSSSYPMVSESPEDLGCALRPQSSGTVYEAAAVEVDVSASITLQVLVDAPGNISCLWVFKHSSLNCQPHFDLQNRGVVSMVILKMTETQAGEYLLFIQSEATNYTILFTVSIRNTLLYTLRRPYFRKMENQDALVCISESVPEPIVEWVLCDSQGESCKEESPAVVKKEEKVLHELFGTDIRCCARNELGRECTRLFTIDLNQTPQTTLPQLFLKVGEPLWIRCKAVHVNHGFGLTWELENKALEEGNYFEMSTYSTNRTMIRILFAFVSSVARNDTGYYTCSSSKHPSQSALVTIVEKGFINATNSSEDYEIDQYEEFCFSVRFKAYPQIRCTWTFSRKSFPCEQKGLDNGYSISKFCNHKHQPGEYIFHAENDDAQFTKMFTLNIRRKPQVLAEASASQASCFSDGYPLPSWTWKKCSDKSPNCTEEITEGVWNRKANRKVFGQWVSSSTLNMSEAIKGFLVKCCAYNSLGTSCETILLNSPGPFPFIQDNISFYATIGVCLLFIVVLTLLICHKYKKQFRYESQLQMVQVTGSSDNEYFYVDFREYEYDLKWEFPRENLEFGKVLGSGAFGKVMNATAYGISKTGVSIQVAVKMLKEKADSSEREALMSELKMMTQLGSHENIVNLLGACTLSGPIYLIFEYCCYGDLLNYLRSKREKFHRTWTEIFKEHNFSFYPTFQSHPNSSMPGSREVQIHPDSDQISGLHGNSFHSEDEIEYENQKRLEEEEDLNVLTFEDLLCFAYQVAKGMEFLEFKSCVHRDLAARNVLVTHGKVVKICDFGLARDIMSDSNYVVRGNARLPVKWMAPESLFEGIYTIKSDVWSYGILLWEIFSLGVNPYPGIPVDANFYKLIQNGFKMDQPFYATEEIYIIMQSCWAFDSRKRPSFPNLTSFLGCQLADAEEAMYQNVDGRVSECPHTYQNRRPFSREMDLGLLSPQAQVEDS

T1 sequence (P04049 whole entry): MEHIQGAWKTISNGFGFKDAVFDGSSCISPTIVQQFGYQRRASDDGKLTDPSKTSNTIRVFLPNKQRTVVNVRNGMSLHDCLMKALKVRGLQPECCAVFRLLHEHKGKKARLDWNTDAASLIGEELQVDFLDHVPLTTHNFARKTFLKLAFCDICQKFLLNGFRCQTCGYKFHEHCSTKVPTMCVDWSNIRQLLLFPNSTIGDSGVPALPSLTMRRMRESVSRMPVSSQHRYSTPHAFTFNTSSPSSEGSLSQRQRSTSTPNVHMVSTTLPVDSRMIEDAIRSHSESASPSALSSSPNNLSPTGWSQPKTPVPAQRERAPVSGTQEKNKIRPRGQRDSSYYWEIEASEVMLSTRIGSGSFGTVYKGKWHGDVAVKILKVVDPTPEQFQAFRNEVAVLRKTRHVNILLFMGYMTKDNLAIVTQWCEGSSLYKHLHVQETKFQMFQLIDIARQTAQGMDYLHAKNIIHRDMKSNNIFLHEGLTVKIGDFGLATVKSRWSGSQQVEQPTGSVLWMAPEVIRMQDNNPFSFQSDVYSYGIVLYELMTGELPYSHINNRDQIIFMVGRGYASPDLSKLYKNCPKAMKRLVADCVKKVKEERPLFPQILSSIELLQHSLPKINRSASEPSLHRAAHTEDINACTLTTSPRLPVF

For `CSc1nc(N)cc(Oc2ccc(-c3nnc(Nc4cccc(C(F)(F)F)c4)[nH]3)cc2)n1` [KG5], the “phospho-S338 CRAF in orthotopic brain tumor tissues” value [1] was “qualitative decrease in phospho-5338 RAF”, the “Plk1 localization to the spindle pole” value [2] was “no effect on Plk1 localization to the spindle pole” and the “accumulation of active Plk1 at the kinetochores” value [2] was “prevented the subsequent accumulation of active Plk1 at the kinetochores”. For the same molecule, the “inhibition of Flt-3” value [3] was “inhibits”.
